Results as given in patent publication US20250034216A1, “STEREOSELECTIVE COVALENT LIGANDS FOR ONCOGENIC AND IMMUNOLOGICAL PROTEINS” (The Scripps Research Institute, priority 2021, published 2025).

Legend:
RTN4_C1101 = molecular target: T1, RTN4_C1101 (Homo sapiens, UniProt Q9NQC3); assay: IA-DTB cysteine engagement; type: binding; conditions: 22Rv1 cells, 20 μM probe, 1 h, relative to DMSO
T1 construct: endogenous in cells; host or cells: 22Rv1
T1 sequence (Q9NQC3 1-1192): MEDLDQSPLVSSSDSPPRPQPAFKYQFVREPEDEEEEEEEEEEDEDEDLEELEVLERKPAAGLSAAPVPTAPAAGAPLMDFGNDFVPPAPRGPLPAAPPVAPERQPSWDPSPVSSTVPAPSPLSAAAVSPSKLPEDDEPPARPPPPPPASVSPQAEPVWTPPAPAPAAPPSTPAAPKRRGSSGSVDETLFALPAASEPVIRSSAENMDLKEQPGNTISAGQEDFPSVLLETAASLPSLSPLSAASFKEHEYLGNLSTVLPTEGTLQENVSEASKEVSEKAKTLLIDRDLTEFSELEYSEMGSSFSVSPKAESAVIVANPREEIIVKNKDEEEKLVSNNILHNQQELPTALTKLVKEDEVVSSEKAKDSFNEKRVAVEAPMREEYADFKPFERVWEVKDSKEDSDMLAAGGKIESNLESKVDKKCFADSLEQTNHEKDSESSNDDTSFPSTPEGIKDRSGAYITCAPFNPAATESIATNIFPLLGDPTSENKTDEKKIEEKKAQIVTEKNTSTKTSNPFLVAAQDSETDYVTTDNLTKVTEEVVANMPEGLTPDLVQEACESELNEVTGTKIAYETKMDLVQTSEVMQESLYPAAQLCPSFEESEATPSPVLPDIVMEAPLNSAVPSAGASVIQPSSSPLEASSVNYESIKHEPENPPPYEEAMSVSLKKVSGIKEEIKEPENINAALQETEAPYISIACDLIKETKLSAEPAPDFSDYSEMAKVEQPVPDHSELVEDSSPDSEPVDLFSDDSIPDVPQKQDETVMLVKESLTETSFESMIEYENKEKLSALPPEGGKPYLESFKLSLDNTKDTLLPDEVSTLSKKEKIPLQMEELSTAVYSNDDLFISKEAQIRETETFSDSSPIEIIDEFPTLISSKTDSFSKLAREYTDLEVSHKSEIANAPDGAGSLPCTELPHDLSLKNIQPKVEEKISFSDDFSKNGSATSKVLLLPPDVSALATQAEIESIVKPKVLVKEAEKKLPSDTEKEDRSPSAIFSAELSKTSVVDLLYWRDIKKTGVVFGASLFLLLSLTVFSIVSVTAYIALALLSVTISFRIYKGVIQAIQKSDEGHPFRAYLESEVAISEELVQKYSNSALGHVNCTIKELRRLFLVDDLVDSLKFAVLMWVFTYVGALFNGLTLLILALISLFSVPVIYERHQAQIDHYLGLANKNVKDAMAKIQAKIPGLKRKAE
Outline: (§1)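 In-situ probe treatment of cells; lysate 2 mg/mL, IA-DTB 1 h RT; MeOH/CHCl3 precipitation, DTT/iodoacetamide, trypsin; streptavidin enrichment; TMT labeling, high-pH fractionation. Ratio = TMT reporter intensity / mean DMSO channels, median-normalized.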

XXYLT1_C10 = molecular target: T2, XXYLT1_C10 (Homo sapiens, UniProt Q8NBI6); assay: IA-DTB cysteine engagement; type: binding; conditions: 22Rv1 cells, 20 μM probe, 1 h, relative to DMSO
T2 construct: endogenous in cells; host or cells: 22Rv1
T2 sequence (Q8NBI6 1-393): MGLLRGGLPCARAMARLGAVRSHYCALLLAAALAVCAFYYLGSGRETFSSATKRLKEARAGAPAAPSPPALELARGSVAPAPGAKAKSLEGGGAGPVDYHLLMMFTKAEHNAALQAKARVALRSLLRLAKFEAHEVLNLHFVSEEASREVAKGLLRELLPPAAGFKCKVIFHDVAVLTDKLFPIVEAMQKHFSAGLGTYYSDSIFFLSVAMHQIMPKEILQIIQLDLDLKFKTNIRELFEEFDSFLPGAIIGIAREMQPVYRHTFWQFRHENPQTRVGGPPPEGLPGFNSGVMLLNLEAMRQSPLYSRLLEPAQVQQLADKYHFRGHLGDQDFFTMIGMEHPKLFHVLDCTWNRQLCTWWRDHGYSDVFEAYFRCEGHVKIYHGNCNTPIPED
Outline: as §1

SMILES	% engagement RTN4_C1101 (RTN4_C1101) [%]	% engagement XXYLT1_C10 (XXYLT1_C10) [%]
C=CC(=O)N1C[C@H](c2ccc(Br)cc2)[C@@H]1C(=O)Nc1cccc2cccnc12 [MY-1B, (2R,3S)-1-acryloyl-3-(4-bromophenyl)-N-(quinolin-8-yl)azetidine-2-carboxamide]	87.5	77
C=CC(=O)N1C[C@H](c2ccc(Br)cc2)[C@H]1C(=O)Nc1cccc2cccnc12 [MY-3B, (2S,3S)-1-acryloyl-3-(4-bromophenyl)-N-(quinolin-8-yl)azetidine-2-carboxamide]	85	93
C=CC(=O)N1C[C@H](c2ccc(Br)cc2)[C@H]1C(=O)Nc1cccc2cccnc12 [MY-3A, (2S,3S)-1-acryloyl-3-(4-bromophenyl)-N-(quinolin-8-yl)azetidine-2-carboxamide]	91.5	67
C=CC(=O)N1C[C@@H](c2ccc(Br)cc2)[C@H]1C(=O)Nc1cccc2cccnc12 [MY-1A, (2S,3R)-1-acryloyl-3-(4-bromophenyl)-N-(quinolin-8-yl)azetidine-2-carboxamide]	85	76.5
